The record followed here is publication PMC4501119, “Cholestenoic acid, an endogenous cholesterol metabolite, is a potent γ-secretase modulator” (Molecular Neurodegeneration, 2015).

“And” between values parts separate entries of the source, which are not always exact repeats. Identical values can stand only once.

Data set [1] in a line: Plasma CA concentration after IP injection (HPLC-MS-MS). In kind it is in vivo, mouse (C57BL/6). The settings on record: mice. The protocol: 25(R)-CA powder was initially dissolved in DMSO (<4.5 % in the final mixture) and then combined with polyethylene glycol (15)-hydroxystearate (Solutol), ethanol, and water at a ratio of (15:10:75). One molar equivalent of sodium hydroxide was added to the mixture. We performed CA intraperitoneal (IP) injections to wild-type mice (C57BL/6 or CF-1). The mice were injected with 25(R)-CA on the right side of the abdomen. The injections have been performed with various time points (30 min, 1 h, 2 h, and 3 h) and with multiple doses (30 mg per kg (mg/kg), 60 mg/kg, 75 mg/kg and 100 mg/kg). The number of each cohort is 6–8. We used 30 mg/kg of CA for the time-course experiments, and for the dose–response experiments the end-point was set at 30 min. The brains and serum are harvested and frozen for brain Aβ extraction.
The plasma samples were extracted using published solid phase extraction method (72) and analyzed by HPLC-MS-MS. Briefly, 0.1 ml mouse plasma samples after adding 20 μl of D3-CA as internal standard were preconditioned with 1.4 ml of ethanol (99.9 %), and 0.5 ml of water, centrifuged at 4 °C, 4000 rpm for 10 min. This solution was then loaded onto a Sep-Pak tC18 (SPE1) solid phase extraction cartridge which were preconditioned with 70 % ethanol. […]

In data set [2] the test system is Aβ peptides in CHO-2B7 cells. In words: IP/MS (MALDI-TOF) Aβ profile of CHO-2B7 conditioned media. In kind it is cell-based, Chinese hamster. The settings on record: 3 μM, vs DMSO control. The protocol:
Chinese hamster ovary (CHO) cells stably overexpressing APP695 (CHO-2B7 cells) were grown in Ham’s F-12 medium (Life Technologies) supplemented with 10 % fetal bovine serum and 100 units/ml of penicillin and 100 μg/ml streptomycin. Cells were grown at 37 °C in a humidified atmosphere containing 5 % CO2 in tissue culture plates (Costar). The cells were harvested at confluence and then utilized for biochemical analyses. Compounds were dissolved in dimethyl sulfoxide (DMSO) and screened in CHO-2B7 cells. The cells were incubated for 16 h in the presence of the compound diluted into OptiMEM-reduced serum medium (Life Technologies, Carlsbad, CA, USA) containing 1 % fetal bovine serum.
Conditioned media from the CHO-2B7 cells and the samples prepared from in vitro γ-secretase studies were used to analyze Aβ and AICD profiles using matrix-assisted laser desorption/ionization time of flight (MALDI-TOF) mass spectrometry analysis. The secreted Aβ peptides were analyzed as previously described with the following modifications. Briefly, the Aβ peptides were immunoprecipitated using Ab5 recognizing the Aβ1-16 epitope and sheep anti-mouse IgG magnetic Dynabeads (Life Technologies, catalog no. 11201D) and the AICD fragments were captured using anti-Flag M2 magnetic beads (Sigma). […] Samples were analyzed using a Bruker Microflex LRF-MALDI-TOF mass spectrometer.

With `CC(CCC[C@@H](C)C(=O)O)[C@H]1CCC2C3CC=C4C[C@@H](O)CC[C@]4(C)C3CC[C@@]21C` (stereo partly drawn) [Cmpd 2a, 25(R)-cholestenoic acid], the “plasma CA concentration” value in data set [1] (30 mg/kg IP, listed as CA) is 200 ng/mL and ~ 500 nM. In data set [1] (C57BL/6, mouse, plasma, intraperitoneal, 100 mg/kg IP), the concentration at 30 min was 4000 ng/mL and ~10 µM. In data set [2], the “Aβ spectra by mass spectrometry” value was “increased Aβ38 peak and decreased Aβ42 peak with no significant changes in Aβ40 peak”.
